Target: T1, M4 receptor (Homo sapiens, UniProt P08173)
T1 construct: expressed in transfected cells; host or cells: CHO (M4-CHO cells)
T1 sequence (P08173 1-479): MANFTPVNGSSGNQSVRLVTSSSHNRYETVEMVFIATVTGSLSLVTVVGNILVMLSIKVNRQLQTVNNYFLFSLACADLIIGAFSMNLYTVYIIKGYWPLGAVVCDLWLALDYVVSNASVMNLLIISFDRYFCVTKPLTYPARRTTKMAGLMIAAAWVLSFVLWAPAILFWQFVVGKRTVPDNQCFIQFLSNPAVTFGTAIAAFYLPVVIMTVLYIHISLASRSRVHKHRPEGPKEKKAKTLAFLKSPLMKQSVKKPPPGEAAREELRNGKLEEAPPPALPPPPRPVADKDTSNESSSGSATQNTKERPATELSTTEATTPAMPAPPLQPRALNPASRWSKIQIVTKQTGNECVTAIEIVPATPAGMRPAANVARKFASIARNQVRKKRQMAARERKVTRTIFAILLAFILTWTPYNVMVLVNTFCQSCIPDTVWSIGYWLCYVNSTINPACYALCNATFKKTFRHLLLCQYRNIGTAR
Assay: PAM agonistic activity of compound on M4 receptor (FLIPR Calcium 6 assay in M4-CHO cells)
Type: cell-based
Settings: with acetylcholine (Ach), final concentration 3 nM
Method: • 1). Cell plating: M4-CHO cells were digested, collected, and resuspended. After cell counting, the cell suspension was seeded into a 384-well cell plate at a density of: 1.2 × 10^4 cells/25 µL/well. The cell plate was then cultured in a 37°C, 5% CO2 incubator for about 16-20 h. • 2). Day 2: Assay Buffer was prepared according to the instructions of the FLIPR Calcium 6 Assay Kit. Component A (20×) was thawed to room temperature and diluted with the Assay Buffer to prepare a loading buffer (1×), which was stored at room temperature until use. • 3). The culture medium was removed from the cell plate. 40 µL of the loading buffer (1×) was quickly added to each well. The cell plate was then centrifuged and incubated at 37°C in the dark for 120 min. • 4). Working solutions of the positive control compound and the test compounds were prepared. An acetylcholine (Ach) agonist compound solution was prepared (final concentration: 3 nM). The PAM compound and the Ach agonist solution were mixed at a 1 : 1 ratio, and the mixture was transferred into a 384-well compound source plate at 20 µL per well. • 5). The cell plate, the compound source plate, and the pipette tips were placed into the corresponding positions within the FLIPR instrument. 10 µL of the diluted compound from step 4 was added into each experimental well using the FLIPR Tetra. Data was collected at the wavelength of 515 nm-575 nm. • 6). The signal values were plotted against the compound concentrations. Nonlinear regression analysis was performed using GraphPad Prism software for curve fitting and EC50 calculation.
The experimental results are shown in Table 1, where A represents EC50 < […]; B represents 100 nM ≤ EC50 < 500 nM, and C represents 500 nM ≤ EC50. Table 1. Agonistic activity of compounds on M4 receptor

| Structure (SMILES) | EC50 |
| --- | --- |
| C=C1CC(Oc2cc(N3CC(CC(=O)N4Cc5nc(C)cc(C)c5C4)C3)ccn2)C1 [Compound 121] | < 0.1 µM |
| Cc1ccn(-c2cc(N3CC(CC(=O)N4Cc5nc(-c6cnn(C)c6)nc(C)c5C4)C3)ccn2)n1 [Compound 123] | < 0.1 µM |
| Cc1cc(C2CCOC2)nc2c1CN(C(=O)CC1CN(c3ccnc(C(F)(F)F)c3)C1)C2 (stereo not drawn) [Compound 125] | < 0.1 µM |
| Cc1ncn(-c2cc(N3CC(CC(=O)N4Cc5c(C)cc(=O)n(C)c5C4)C3)ccn2)n1 [Compound 127] | < 0.1 µM |
| Cc1ncn(-c2cc(N3CC(CC(=O)N4Cc5nc(-c6cnn(C)c6)nc(C)c5C4)C3)ccn2)n1 [Compound 130] | < 0.1 µM |
| Cc1cc(=O)n(C)c2c1CN(C(=O)CC1CN(c3ccc4c(c3)CCC4=O)C1)C2 [Compound 131] | < 0.1 µM |
| Cc1ccn(-c2cc(N3CC(CC(=O)N4Cc5c(C)cc(=O)n(C)c5C4)C3)cnn2)n1 [Compound 133] | < 0.1 µM |
| Cc1cc(C)c2c(n1)CN(C(=O)CC1CN(c3ccnc(-n4ccc(C(F)F)n4)c3)C1)C2 [Compound 134] | < 0.1 µM |
| COc1nc(C)c2c(n1)CN(C(=O)CC1CN(c3ccnc(OC4CC(F)(F)C4)c3)C1)C2 [Compound 137] | < 0.1 µM |
| Cc1cc(=O)n(C)c2c1CN(C(=O)CC1CN(c3ccnc(OC4CC4)c3)C1)C2 [Compound 138] | < 0.1 µM |
| Cc1cc(=O)n(C)c2c1CN(C(=O)OC1CN(c3ccnc(OC4CC(F)(F)C4)c3)C1)C2 [Compound 139] | < 0.1 µM |
| Cn1c2c(c(F)cc1=O)CN(C(=O)CC1CN(c3ccnc(OC4CC(F)(F)C4)c3)C1)C2 [Compound 141] | < 0.1 µM |
| Cc1nc(-c2cnn(C)c2)nc2c1CN(C(=O)CC1CN(c3ccnc(OC4CC(F)(F)C4)c3)C1)C2 [Compound 143] | < 0.1 µM |
| Cc1nc(-c2ccnn2C)nc2c1CN(C(=O)CC1CN(c3ccnc(OC4CC(F)(F)C4)c3)C1)C2 [Compound 144] | < 0.1 µM |
| Cc1ncn(-c2cc(N3CC(CC(=O)N4Cc5nc(-c6ccnn6C)nc(C)c5C4)C3)ccn2)n1 [Compound 146] | < 0.1 µM |
| Cc1cc(-c2cnn(C)c2)nc2c1CN(C(=O)CC1CN(c3ccnc(OC4CC4)c3)C1)C2 [Compound 148] | < 0.1 µM |
| Cc1cc(C)c2c(n1)CN(C(=O)CC1CN(c3cc(-n4ccc(F)n4)ncc3F)C1)C2 [Compound 149] | < 0.1 µM |
| Cc1ncn(-c2cc(N3CC(CC(=O)N4Cc5nc(-c6cnn(C(F)F)c6)cc(C)c5C4)C3)ccn2)n1 [Compound 150] | < 0.1 µM |

| Structure (SMILES) | EC50 |
| --- | --- |
| Cc1cc(-c2ccnn2C)nc2c1CN(C(=O)CC1CN(c3ccnc(OC4CC(F)(F)C4)c3)C1)C2 [Compound 158] | < 0.1 µM |
| Cc1cc(=O)n(C)c2c1CN(C(=O)CC1CN(c3ccnc(-n4ccc(C(F)(F)F)n4)c3)C1)C2 [Compound 160] | < 0.1 µM |
| Cc1cc(-c2cnn(C(F)F)c2)nc2c1CN(C(=O)CC1CN(c3ccnc(C(F)(F)F)c3)C1)C2 [Compound 162] | < 0.1 µM |
| Cc1ncn(-c2nc(C)c3c(n2)CN(C(=O)CC2CN(c4ccnc(OC5CC(F)(F)C5)c4)C2)C3)n1 [Compound 163] | < 0.1 µM |
| C=C1CC(Oc2cc(N3CC(CC(=O)N4Cc5c(C)cc(=O)n(C)c5C4)C3)ccn2)C1 [Compound 165] | < 0.1 µM |
| C=C1CC(Oc2cc(N3CC(CC(=O)N4Cc5nc(-c6cnn(C)c6)cc(C)c5C4)C3)ccn2)C1 [Compound 166] | < 0.1 µM |
| Cc1nc(-c2cnn(C)c2)nc2c1CN(C(=O)CC1CN(c3ccnc(OC4CCOC4)c3)C1)C2 (stereo not drawn) [Compound 168] | < 0.1 µM |
| Cc1cc(-c2cnn(C)c2)nc2c1CN(C(=O)CC1CN(c3ccnc(OC4CCOC4)c3)C1)C2 (stereo not drawn) [Compound 169] | < 0.1 µM |
| Cc1cc(-c2cnn(C)c2)nc2c1CN(C(=O)CC1CN(c3ccnc(OC4CCOC4)c3)C1)C2 (stereo not drawn) [Compound 170] | < 0.1 µM |
| Cc1cc(-c2cnn(C)c2)nc2c1CN(C(=O)CC1CN(c3ccnc(Oc4cnn(C)c4)c3)C1)C2 [Compound 171] | < 0.1 µM |
| Cc1ncn(-c2cc(C)c3c(n2)CN(C(=O)CC2CN(c4ccnc(C(F)(F)F)c4)C2)C3)n1 [Compound 172] | < 0.1 µM |
| Cc1nc(-c2cnn(C(F)F)c2)nc2c1CN(C(=O)CC1CN(c3ccnc(C(F)(F)F)c3)C1)C2 [Compound 173] | < 0.1 µM |
| Cc1ncc(-c2nc(C)c3c(n2)CN(C(=O)CC2CN(c4ccnc(C(F)(F)F)c4)C2)C3)s1 [Compound 174] | < 0.1 µM |
| Cc1c2c(n(C)c(=O)c1F)CN(C(=O)CC1CN(c3ccnc(OC4CC(F)(F)C4)c3)C1)C2 [Compound 175] | < 0.1 µM |
| Cc1c2c(n(C)c(=O)c1F)CN(C(=O)CC1CN(c3ccnc(C(F)(F)F)c3)C1)C2 [Compound 176] | < 0.1 µM |
| Cc1c2c(n(C(F)F)c(=O)c1F)CN(C(=O)CC1CN(c3ccnc(OC4CC(F)(F)C4)c3)C1)C2 [Compound 177] | < 0.1 µM |
| Cc1c2c(n(C(F)F)c(=O)c1F)CN(C(=O)CC1CN(c3ccnc(C(F)(F)F)c3)C1)C2 [Compound 178] | < 0.1 µM |

Continued, values first:

| EC50 | Structure (SMILES) |
| --- | --- |
| < 0.1 µM | Cc1ccn(-c2cc(N3CC(CC(=O)N4Cc5nc(C)c6c(c5C4)CCC6)C3)ccn2)n1 [Compound 87] |
| < 0.1 µM | Cc1ccn(-c2cc(N3CC(CC(=O)N4Cc5nc(C)nc(N(C)C)c5C4)C3)ccn2)n1 [Compound 90] |
| < 0.1 µM | Cc1ccn(-c2cc(N3CC(CC(=O)N4Cc5nc(COC6CC6)cc(C)c5C4)C3)ccn2)n1 [Compound 91] |
| < 0.1 µM | Cc1ccn(-c2cc(N3CC(CC(=O)N4Cc5nc6c(c(C)c5C4)CCC6)C3)ncn2)n1 [Compound 92] |
| < 0.1 µM | Cc1c2c(nc3c1CN(C(=O)CC1CN(c4ccnc(OC5CCOC5)c4)C1)C3)CCC2 (stereo not drawn) [Compound 93] |
| < 0.1 µM | Cc1c2c(nc3c1CN(C(=O)CC1CN(c4ccc5c(c4)CCC5=O)C1)C3)CCC2 [Compound 94] |
| < 0.1 µM | Cc1c2c(nc3c1CN(C(=O)CC1CN(c4ccnc(-n5cccn5)c4)C1)C3)CCC2 [Compound 95] |
| < 0.1 µM | Cc1cc(C)c2c(n1)CN(C(=O)CC1CN(c3ccnc(-c4nc(C)nn4C)c3)C1)C2 [Compound 96] |
| < 0.1 µM | Cc1cc(C)c2c(n1)CN(C(=O)CC1CN(c3ccnc(-c4ncnn4C)c3)C1)C2 [Compound 97] |
| < 0.1 µM | Cc1ccn(-c2cc(N3CC(CC(=O)N4Cc5nc(C6CCOCC6)cc(C)c5C4)C3)ccn2)n1 [Compound 98] |
| < 0.1 µM | Cc1ccn(-c2cc(N3CC(CC(=O)N4Cc5c(C)cc(=O)n(C)c5C4)C3)ccn2)n1 [Compound 99] |
| < 0.1 µM | Cc1cc(=O)n(C)c2c1CN(C(=O)CC1CN(c3ccnc(C(F)(F)F)c3)C1)C2 [Compound 100] |
| < 0.1 µM | Cc1cc(=O)n(C)c2c1CN(C(=O)CC1CN(c3ccnc(OC4CC(F)(F)C4)c3)C1)C2 [Compound 101] |
| < 0.1 µM | Cc1cc(C)c2c(n1)CN(C(=O)CC1CN(c3cnnc(-n4ccc(C)n4)c3)C1)C2 [Compound 102] |
| < 0.1 µM | Cc1cc(C#N)c(F)c2c1CN(C(=O)CC1CN(c3ccnc(OC4CC(F)(F)C4)c3)C1)C2 [Compound 103] |
| < 0.1 µM | Cc1nc(C#N)c2c(n1)CN(C(=O)CC1CN(c3ccnc(OC4CC(F)(F)C4)c3)C1)C2 [Compound 107] |
| < 0.1 µM | Cc1cc(C)c2c(n1)CN(C(=O)CC1CN(c3ccnc(-n4cnnc4)c3)C1)C2 [Compound 108] |
| < 0.1 µM | Cc1cc(-c2cnn(C)c2)nc2c1CN(C(=O)CC1CN(c3ccnc(C(F)(F)F)c3)C1)C2 [Compound 109] |
| < 0.1 µM | Cc1cc(-c2ccn(C)n2)nc2c1CN(C(=O)CC1CN(c3ccnc(C(F)(F)F)c3)C1)C2 [Compound 112] |
| < 0.1 µM | Cc1nc(C#N)nc2c1CN(C(=O)CC1CN(c3ccnc(OC4CC(F)(F)C4)c3)C1)C2 [Compound 115] |
| < 0.1 µM | Cc1c2c(n(C)c(=O)c1Cl)CN(C(=O)CC1CN(c3ccnc(OC4CC(F)(F)C4)c3)C1)C2 [Compound 116] |
| < 0.1 µM | Cc1cc(=O)n(C)c2c1CN(C(=O)CC1CN(c3ccnc(O[C@H]4CCOC4)c3)C1)C2 [Compound 117] |
| < 0.1 µM | Cc1cc(=O)n(C)c2c1CN(C(=O)CC1CN(c3ccnc(O[C@@H]4CCOC4)c3)C1)C2 [Compound 118] |
| < 0.1 µM | Cc1cc(=O)n(C)c2c1CN(C(=O)CC1CN(c3ccnc(-n4ccc(F)n4)c3)C1)C2 [Compound 119] |
| < 0.1 µM | Cc1cc(C)c2c(n1)CN(C(=O)CC1CN(c3ccnc(C(=O)c4cnn(C)c4)c3)C1)C2 [Compound 120] |
